Results reported in ChEMBL document CHEMBL3132769, “Fragment growing to retain or alter the selectivity of anchored kinase hinge-binding fragments” (Medchemcomm, 2014).

Columns and labels:
[1] = target: Ribosomal protein S6 kinase alpha-1 (Homo sapiens) (UniProt Q15418); assay: Inhibition of human full length RSK1 expressed in baculovirus assessed as substrate phosphorylation using fluorescence-labelled peptides as substrate at 95 uM after 90 mins by microfluidic peptide phosphorylation assay
[2] = target: Casein kinase I isoform alpha (Homo sapiens) (UniProt P48729); assay: Inhibition of human full length CSNK1A1 expressed in baculovirus assessed as substrate phosphorylation using fluorescence-labelled peptides as substrate at 95 uM after 90 mins by microfluidic peptide phosphorylation assay
Chain of Casein kinase I isoform alpha (Homo sapiens) (P48729 2-337 limits assumed): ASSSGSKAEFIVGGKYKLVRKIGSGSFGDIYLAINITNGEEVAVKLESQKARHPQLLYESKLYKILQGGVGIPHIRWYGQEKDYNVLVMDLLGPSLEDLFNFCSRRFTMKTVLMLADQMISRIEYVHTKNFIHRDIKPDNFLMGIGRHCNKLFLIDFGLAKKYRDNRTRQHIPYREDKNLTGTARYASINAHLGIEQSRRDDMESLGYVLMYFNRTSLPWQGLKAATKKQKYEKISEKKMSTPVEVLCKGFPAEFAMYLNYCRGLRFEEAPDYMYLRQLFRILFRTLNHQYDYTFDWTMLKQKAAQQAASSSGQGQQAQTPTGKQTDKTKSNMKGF

[3] = target: Fibroblast growth factor receptor 1 (Homo sapiens) (UniProt P11362); assay: Inhibition of human FGFR1 catalytic domain expressed in baculovirus assessed as substrate phosphorylation using fluorescence-labelled peptides as substrate at 1000 uM after 90 mins by microfluidic peptide phosphorylation assay
Chain of Fibroblast growth factor receptor 1 (Homo sapiens) (P11362 22-822 limits assumed): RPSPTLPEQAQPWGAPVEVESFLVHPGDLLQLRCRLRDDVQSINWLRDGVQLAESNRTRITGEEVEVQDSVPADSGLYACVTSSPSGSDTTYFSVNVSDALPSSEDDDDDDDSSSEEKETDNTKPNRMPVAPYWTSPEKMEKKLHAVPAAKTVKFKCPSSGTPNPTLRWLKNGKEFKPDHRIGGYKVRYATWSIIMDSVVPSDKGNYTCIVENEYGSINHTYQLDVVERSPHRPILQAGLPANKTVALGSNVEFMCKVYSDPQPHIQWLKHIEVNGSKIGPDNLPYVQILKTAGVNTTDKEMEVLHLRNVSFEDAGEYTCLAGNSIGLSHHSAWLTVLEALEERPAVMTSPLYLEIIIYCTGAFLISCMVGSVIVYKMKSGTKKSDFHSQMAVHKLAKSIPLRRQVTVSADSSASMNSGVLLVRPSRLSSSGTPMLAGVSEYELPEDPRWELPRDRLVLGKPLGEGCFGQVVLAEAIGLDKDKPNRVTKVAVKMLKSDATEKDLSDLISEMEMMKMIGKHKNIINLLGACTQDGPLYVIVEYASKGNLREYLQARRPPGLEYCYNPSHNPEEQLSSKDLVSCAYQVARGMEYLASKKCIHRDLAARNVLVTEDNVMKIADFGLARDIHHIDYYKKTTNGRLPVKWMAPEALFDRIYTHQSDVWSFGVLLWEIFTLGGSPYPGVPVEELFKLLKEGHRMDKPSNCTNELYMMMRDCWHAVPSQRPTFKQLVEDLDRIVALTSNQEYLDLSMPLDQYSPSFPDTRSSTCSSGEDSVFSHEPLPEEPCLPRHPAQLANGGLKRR

[4] = target: Tyrosine-protein kinase Lck (Homo sapiens) (UniProt P06239); conditions: 0.1 uM
Chain of Tyrosine-protein kinase Lck (Homo sapiens) (P06239 2-509 limits assumed): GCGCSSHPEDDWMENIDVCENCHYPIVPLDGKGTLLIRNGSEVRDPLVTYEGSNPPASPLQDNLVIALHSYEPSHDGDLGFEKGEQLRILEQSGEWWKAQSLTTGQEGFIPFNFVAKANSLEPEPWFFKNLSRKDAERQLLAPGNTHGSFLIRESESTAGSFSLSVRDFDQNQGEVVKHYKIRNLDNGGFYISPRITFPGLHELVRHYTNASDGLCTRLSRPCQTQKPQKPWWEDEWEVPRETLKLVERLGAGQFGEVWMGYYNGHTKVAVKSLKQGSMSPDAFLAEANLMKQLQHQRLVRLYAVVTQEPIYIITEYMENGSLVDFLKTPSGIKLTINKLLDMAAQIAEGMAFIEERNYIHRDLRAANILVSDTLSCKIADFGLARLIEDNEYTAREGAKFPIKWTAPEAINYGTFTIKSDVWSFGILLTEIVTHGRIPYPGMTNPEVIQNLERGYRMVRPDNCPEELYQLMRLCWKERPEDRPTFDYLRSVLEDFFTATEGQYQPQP
Description: Inhibition of human full length LCK expressed in baculovirus assessed as substrate phosphorylation using fluorescence-labelled peptides as substrate at 0.1 uM after 90 mins by microfluidic peptide phosphorylation assay

[5] = target: T1, Aurora kinase A (Homo sapiens) (UniProt O14965); conditions: 0.1 uM
T1 sequence (whole entry): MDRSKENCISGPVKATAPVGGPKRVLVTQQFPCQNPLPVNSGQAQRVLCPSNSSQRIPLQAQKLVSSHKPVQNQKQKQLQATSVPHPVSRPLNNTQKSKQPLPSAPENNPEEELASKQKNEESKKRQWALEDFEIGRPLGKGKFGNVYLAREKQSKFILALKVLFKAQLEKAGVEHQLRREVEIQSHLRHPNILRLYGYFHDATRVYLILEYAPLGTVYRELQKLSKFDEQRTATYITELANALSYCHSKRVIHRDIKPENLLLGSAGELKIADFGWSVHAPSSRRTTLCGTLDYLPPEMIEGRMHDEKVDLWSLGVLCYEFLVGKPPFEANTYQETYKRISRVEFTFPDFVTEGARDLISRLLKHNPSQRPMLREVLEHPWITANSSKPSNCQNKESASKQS
Description: Inhibition of human full length AurA expressed in baculovirus assessed as substrate phosphorylation using fluorescence-labelled peptides as substrate at 0.1 uM after 90 mins by microfluidic peptide phosphorylation assay

[6] = target: Tyrosine-protein kinase Lyn (Homo sapiens) (UniProt P07948); assay: Inhibition of human full length LYN expressed in baculovirus assessed as substrate phosphorylation using fluorescence-labelled peptides as substrate at […] after 90 mins by microfluidic peptide phosphorylation assay
Chain of Tyrosine-protein kinase Lyn (Homo sapiens) (P07948 2-512 limits assumed): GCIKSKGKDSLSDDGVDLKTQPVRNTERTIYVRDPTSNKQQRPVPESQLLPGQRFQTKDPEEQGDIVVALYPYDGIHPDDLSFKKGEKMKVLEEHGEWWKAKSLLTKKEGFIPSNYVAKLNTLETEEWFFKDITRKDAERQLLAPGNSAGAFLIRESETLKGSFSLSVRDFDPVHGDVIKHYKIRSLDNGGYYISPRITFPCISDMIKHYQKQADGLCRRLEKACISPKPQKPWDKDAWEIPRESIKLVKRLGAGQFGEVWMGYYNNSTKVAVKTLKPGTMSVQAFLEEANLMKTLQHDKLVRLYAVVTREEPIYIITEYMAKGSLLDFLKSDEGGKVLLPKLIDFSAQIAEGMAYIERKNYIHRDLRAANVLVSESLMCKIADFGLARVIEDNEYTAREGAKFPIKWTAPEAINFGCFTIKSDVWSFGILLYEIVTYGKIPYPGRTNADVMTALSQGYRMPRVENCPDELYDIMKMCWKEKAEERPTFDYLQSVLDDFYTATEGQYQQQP

[7] = target: T2, Mitogen-activated protein kinase 12 (Homo sapiens) (UniProt P53778); assay: Inhibition of human full length p38 gamma expressed in Escherichia coli cell assessed as substrate phosphorylation using fluorescence-labelled peptides as substrate at […] after 90 mins by microfluidic peptide phosphorylation assay
T2 sequence (whole entry): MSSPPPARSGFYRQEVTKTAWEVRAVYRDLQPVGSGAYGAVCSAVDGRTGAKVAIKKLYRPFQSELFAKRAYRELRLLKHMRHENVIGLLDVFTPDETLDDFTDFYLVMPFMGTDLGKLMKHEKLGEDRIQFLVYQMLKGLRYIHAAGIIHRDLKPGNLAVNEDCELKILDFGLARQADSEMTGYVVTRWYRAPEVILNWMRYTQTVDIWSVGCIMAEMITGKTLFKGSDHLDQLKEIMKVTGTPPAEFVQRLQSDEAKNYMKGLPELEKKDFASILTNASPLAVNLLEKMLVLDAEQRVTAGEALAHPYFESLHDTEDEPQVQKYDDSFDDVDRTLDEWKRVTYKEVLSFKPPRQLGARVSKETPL

[8] = target: T3, Serine/threonine-protein kinase D1 (Homo sapiens) (UniProt Q15139); assay: Inhibition of human full length PKD1 expressed in baculovirus assessed as substrate phosphorylation using fluorescence-labelled peptides as substrate at […] after 90 mins by microfluidic peptide phosphorylation assay
T3 sequence (whole entry): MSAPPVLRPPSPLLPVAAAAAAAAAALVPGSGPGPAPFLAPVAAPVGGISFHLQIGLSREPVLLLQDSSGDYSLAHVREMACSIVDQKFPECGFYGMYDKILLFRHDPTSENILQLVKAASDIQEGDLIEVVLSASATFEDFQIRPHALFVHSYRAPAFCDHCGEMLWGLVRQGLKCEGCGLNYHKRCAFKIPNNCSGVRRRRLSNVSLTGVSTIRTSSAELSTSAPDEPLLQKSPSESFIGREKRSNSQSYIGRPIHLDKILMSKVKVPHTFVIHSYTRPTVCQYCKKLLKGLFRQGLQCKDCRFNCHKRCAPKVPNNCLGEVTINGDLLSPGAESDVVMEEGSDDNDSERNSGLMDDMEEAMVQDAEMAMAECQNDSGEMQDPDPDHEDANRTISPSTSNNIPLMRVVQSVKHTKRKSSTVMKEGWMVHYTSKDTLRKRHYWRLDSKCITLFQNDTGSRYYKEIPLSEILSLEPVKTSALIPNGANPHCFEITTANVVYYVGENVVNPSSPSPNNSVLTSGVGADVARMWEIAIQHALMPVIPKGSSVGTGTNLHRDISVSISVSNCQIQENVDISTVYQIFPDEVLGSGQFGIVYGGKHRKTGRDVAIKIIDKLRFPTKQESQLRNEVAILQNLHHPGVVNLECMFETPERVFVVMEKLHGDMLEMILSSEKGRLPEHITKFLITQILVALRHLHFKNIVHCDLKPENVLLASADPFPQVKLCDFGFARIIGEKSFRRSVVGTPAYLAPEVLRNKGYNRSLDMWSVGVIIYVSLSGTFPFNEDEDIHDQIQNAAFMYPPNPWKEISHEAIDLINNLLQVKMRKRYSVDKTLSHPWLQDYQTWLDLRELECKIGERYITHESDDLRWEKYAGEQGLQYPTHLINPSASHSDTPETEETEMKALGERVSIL

[9] = target: T4, Serine/threonine-protein kinase 3 (Homo sapiens) (UniProt Q13188); assay: Inhibition of human full length MST2 expressed in baculovirus assessed as substrate phosphorylation using fluorescence-labelled peptides as substrate at 9 uM after 90 mins by microfluidic peptide phosphorylation assay
T4 sequence (whole entry): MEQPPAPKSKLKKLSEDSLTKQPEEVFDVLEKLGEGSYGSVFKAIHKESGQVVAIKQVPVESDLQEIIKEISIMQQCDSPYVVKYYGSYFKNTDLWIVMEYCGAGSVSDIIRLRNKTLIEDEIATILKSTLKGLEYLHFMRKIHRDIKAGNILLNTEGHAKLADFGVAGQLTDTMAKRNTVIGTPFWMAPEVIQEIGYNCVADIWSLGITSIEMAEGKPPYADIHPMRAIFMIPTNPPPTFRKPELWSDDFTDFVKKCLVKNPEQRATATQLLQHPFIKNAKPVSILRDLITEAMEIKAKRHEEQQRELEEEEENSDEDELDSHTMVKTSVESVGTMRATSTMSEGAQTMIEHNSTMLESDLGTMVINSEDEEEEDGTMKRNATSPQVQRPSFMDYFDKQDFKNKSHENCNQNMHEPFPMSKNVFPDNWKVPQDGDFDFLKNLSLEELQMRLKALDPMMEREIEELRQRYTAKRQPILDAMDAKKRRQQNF

Chain of Ribosomal protein S6 kinase alpha-1 (Homo sapiens) (Q15418 whole entry, canonical isoform): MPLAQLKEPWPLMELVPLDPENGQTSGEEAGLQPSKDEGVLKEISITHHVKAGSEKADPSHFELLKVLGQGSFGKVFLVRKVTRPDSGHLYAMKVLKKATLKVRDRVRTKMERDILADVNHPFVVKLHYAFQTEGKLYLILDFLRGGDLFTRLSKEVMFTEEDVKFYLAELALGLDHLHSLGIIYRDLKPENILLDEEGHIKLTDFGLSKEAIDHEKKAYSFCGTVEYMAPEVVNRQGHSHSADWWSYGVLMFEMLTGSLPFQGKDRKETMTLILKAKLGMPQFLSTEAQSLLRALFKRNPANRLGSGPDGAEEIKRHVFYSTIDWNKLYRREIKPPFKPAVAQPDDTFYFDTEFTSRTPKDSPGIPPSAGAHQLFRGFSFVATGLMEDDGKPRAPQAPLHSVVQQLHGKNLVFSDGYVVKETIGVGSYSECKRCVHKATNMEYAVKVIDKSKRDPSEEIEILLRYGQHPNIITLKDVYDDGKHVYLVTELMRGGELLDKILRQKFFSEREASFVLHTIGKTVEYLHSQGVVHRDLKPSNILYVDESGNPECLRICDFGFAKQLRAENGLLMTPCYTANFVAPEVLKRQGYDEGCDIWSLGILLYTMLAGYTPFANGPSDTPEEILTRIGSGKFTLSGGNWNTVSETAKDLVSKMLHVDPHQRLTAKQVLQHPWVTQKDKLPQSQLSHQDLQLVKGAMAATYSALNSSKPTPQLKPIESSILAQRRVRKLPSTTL

NCCc1ccc(-c2ncnc3[nH]cnc23)cc1
inhibition [1]: 83.5%
inhibition [2]: 53.5%

c1cnc2[nH]ccc2c1
inhibition [3]: 64.5%

C[C@H](CN(C)C)Oc1nc(Nc2cc3cccc(Cl)c3cn2)cnc1C#N
inhibition [4]: 0%
inhibition [5]: 0%

COC(=O)c1cnc(Nc2cnc(C#N)cn2)cc1NCC1CCNCC1
inhibition [6]: 8%
inhibition [7]: 1.5%
inhibition [8]: 3%

NCC1CN(c2ncnc3[nH]c4cnccc4c23)CCO1 (centres undefined)
inhibition [9]: 81%
